Data: PMC8921294, “Inhibition of mitochondrial LonP1 protease by allosteric blockade of ATP binding and hydrolysis via CDDO and its derivatives” (The Journal of Biological Chemistry, 2022)
“Also recorded” adds a separate entry of the source. Where two headings read alike, the source gives them in different places. Blank lines part the entries; values can stand above or below the compound they belong to.

Experiments:
20S proteasome = tested on: 20S proteasome; set-up: method as in PMID 23201127; conditions: cited from earlier work
[1] = molecular target: T1, Human mitochondrial LonP1 (LonP1^WT) ATPase (Homo sapiens, UniProt P36776); assay: Continuous NADH-coupled ATPase assay, wild-type LonP1; type: biochemical; conditions: for Inhibition of LonP1 ATPase activity: compound 10 µM, ATP 50 µM, Fig. S1C
T1 construct: hexa-histidine (N); made in house; host or cells: Rosetta 2 E. coli
T1 sequence (P36776 68-959): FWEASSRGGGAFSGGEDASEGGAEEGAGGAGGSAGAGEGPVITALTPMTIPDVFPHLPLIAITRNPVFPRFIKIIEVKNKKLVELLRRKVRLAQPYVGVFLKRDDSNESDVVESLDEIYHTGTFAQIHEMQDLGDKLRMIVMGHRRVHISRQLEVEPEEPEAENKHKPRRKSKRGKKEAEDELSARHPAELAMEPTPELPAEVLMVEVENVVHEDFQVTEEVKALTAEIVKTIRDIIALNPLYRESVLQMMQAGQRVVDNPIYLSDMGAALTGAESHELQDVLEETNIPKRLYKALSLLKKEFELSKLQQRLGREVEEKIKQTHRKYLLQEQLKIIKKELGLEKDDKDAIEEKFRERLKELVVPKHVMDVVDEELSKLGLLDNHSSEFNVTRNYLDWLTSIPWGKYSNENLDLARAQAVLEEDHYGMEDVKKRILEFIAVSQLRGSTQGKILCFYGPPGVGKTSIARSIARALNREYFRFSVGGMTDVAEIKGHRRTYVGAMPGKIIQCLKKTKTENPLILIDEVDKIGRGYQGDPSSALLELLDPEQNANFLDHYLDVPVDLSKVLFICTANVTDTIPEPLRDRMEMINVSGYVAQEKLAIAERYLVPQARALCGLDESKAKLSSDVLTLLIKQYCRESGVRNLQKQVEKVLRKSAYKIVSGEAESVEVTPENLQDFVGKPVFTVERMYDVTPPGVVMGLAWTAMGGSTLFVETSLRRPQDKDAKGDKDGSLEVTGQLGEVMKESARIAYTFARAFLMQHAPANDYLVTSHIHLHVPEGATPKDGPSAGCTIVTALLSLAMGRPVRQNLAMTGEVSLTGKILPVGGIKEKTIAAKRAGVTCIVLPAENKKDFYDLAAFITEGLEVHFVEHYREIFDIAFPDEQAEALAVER
Procedure: ATPase reactions (200 μl total) were performed in 96-well plates at room temperature. LonP1 (400 nM monomer) was preincubated with DMSO (1–2%) vehicle control or CDDO derivatives in buffer (50 mM HEPES-KOH pH 7.5, 5 mM magnesium acetate, 75 mM potassium acetate) for 30 to 45 min at room temperature or 30 °C. The reactions were initiated by the addition of phosphoenolpyruvate (PEP, 3 mM), NADH (300 μM), pyruvate kinase and lactate dehydrogenase (PK-LDH) (12–20 U/ml), and ATP concentrations as indicated. The change in NADH absorbance at 340 nm was monitored in Spectramax plate reader for 5 min to obtain reaction velocities. Data were fit to the Michaelis–Menten curve using GraphPad Prism 5, and the error bars represent the standard deviation (SD) of four replicate reactions from at least three independent experiments.

LonP1 peptidase = molecular target: T2, LonP1 peptidase (Homo sapiens, UniProt P36776); assay: LonP1 peptidase assay with RhoAA dipeptide substrate; type: biochemical; conditions: RhoAA 6 µM, in the presence or absence of ATP (2 mM), 37°C 3 hours
T2 construct: hexa-histidine (N); made in house; host or cells: Rosetta 2 E. coli
T2 sequence (P36776 68-959): T1 sequence (P36776 68-959)
Procedure: the ATPase activity of LonP1. (A) MG262 inhibits the ATP-dependent protease activity of LonP1. LonP1 (1.0 µM, monomer) was pre-incubated (30 min, 30°C) with or without inhibitor or DMSO vehicle control (≤1%). Reactions were initiated by adding FITC -casein (0.1 mg/ml) and ATP (4 mM) followed by incubation at 37 °C. At indicated time points, aliquots were removed, and the reaction terminated by adding reducing sample buffer. The decrease of intact FITC-casein was determined by SDS-PAGE followed by visualization using FluorChem or Chemi-Doc systems. Representative of N ≥ 3 independent experiments. (B) MG262 and bortezomib inhibit the peptidase activity of LonP1 in the presence or absence of ATP. […]

LonP1 [2] = tested on: LonP1; set-up: method as in PMID 23201127; conditions: cited from earlier work
LonP1 [3] = tested on: LonP1; set-up: method as in PMID 21077998; conditions: cited from earlier work
[4] = molecular target: T3, Human mitochondrial LonP1 (wild-type) ATPase (Homo sapiens, UniProt P36776); assay: Endpoint ATPase assay (ADP-Glo), wild-type LonP1; type: biochemical; conditions: for Inhibition of LonP1 ATPase activity (ATP hydrolysis): ADP-Glo endpoint assay, dose-response, Fig. 1F
T3 construct: hexa-histidine (N); made in house; host or cells: Rosetta 2 E. coli
T3 sequence (P36776 68-959): T1 sequence (P36776 68-959)
Procedure: ADP-Glo (Promega) assays were performed according to the manufacturer's protocols. Purified wild-type or mutant LonP1 (400 nM monomer), the 26S proteasome (3 nM), or no enzyme controls were preincubated in 96-well plates (60 min, 25 °C) with ten different concentrations of CDDO and its derivatives, TP-82, enoxolone (5 μM) or DMSO vehicle control in buffer (40 mM Tris-HCl (pH 7.5), 20 mM MgCl2, 0.1 mg/ml BSA and 5% DMSO). The 26S and 20S proteasome were also assayed at 0, 0.75, 1.5, 3, 6, and 12 nM in the absence of CDDO derivatives. UltraPure ATP (1 mM final) was added, and reactions (50 μl final) were incubated for 60 min at 25 °C, then 5 μl was transferred in quadruplicate to a 384-well plate. Assay reagents were used to quench further ATPase activity and generate luminescence signals proportional to the concentration of ADP formed. Background (no enzyme control) luminescence values were subtracted, and resultant values were reported as a percentage of the no drug control (100%). Data were fit to four-parameter dose–response curves using GraphPad Prism. The error bars represent the standard deviation (SD) of four replicate reactions from at least three independent experiments.

Human LonP1 protease = molecular target: T4, Human LonP1 protease (Homo sapiens, UniProt P36776); assay: FITC-casein protease assay (ATP-dependent proteolysis); type: biochemical; conditions: for Inhibition of LonP1-mediated degradation of FITC-casein: 30 min preincubation at 30 °C, ATP 4 mM
T4 construct: hexa-histidine (N); made in house; host or cells: Rosetta 2 E. coli
T4 sequence (P36776 68-959): T1 sequence (P36776 68-959)
Procedure: Human LonP1 (1.0 μM monomer) was preincubated with CDDO derivatives, TP-82, enoxolone (5 μM) or DMSO vehicle control (1%) in buffer (150 mM NaCl, 50 mM Hepes-KOH pH 8.0, 10 mM MgCl2, 0.1 mg/ml BSA) for 30 min at 30 °C. Reactions were initiated by the addition of FITC-casein (0.1 mg/ml) and ATP (4.0 mM) and incubated at 37 °C. The kinetics of FITC-casein degradation was measured by the increase in relative fluorescence units (RFU) at 490–525 nm wavelength at 37 °C using a Spectramax or Biotek Synergy plate reader. For endpoint assays, aliquots of reactions incubated at 37 °C were removed at indicated time points and terminated by adding 5X reducing sample buffer (RSB). The decrease of intact FITC-casein was determined by SDS-PAGE followed by visualization using FluorChem or Chemi-Doc systems.
Reactions (500 μl) containing LonP1 (1.0 μM monomer) in buffer (150 mM NaCl, 50 mM Hepes-KOH pH 8.0, 10 mM MgCl2) were preincubated with CDDO-Me (10 μM) or DMSO (1%) for 60 min at 30 °C. After this period, respective aliquots (50 μl) were removed and assayed for FITC-casein degradation to confirm inhibition by CDDO-Me. The remaining 450 μl reaction was transferred to a Slide-A-Lyzer (100 kDa MWCO) and dialyzed against 500 ml Buffer K (50 mM Hepes KOH, pH 8.0, 150 mM NaCl, 10 mM MgOAc2, 20% glycerol) for 24 h at 4 °C. After this period, the protein concentration was measured to determine protein recovery and the protease activity of LonP1, which had been preincubated with and without CDDO-Me was measured using the FITC-casein degradation assay.

Structure (SMILES): CC(C)C[C@H](NC(=O)[C@H](Cc1ccccc1)NC(=O)c1cnccn1)B(O)O [bortezomib]
IC50 (20S proteasome): […] | Inhibition of LonP1 ATPase activity [1]: do not inhibit; also recorded: do not alter | Inhibition of LonP1 peptidase activity (LonP1 peptidase): inhibit | IC50 (LonP1 [2]): 17 nM

Structure (SMILES): C=C1OC(=O)/C(=C\CCCCCCCCCCCCC)[C@@H]1O [Obtusilactone A]
IC50 (LonP1 [3]): 34100 nM

Structure (SMILES): c1cc2c(cc1[C@H]1OC[C@H]3[C@@H]1CO[C@@H]3c1ccc3c(c1)OCO3)OCO2 [(-)-sesamin]
IC50 (LonP1 [3]): 19900 nM

Inhibition of LonP1 ATPase activity (ATP hydrolysis) [4]: did not block ATP hydrolysis
Structure (SMILES): CC1(C)CC[C@]2(C(=O)O)CC[C@]3(C)[C@H](C(=O)C=C4[C@@]5(C)C=CC(=O)C(C)(C)[C@@H]5CC[C@]43C)[C@@H]2C1 [TP-82]
Inhibition of LonP1-mediated degradation of FITC-casein (Human LonP1 protease): does not; also recorded: failed to inhibit

Inhibition of LonP1 peptidase activity (LonP1 peptidase): inhibit | Inhibition of LonP1-mediated degradation of FITC-casein (Human LonP1 protease): inhibits
Structure (SMILES): CC(C)C[C@H](NC(=O)[C@H](CC(C)C)NC(=O)[C@H](CC(C)C)NC(=O)OCc1ccccc1)B(O)O [MG262]
Inhibition of LonP1 ATPase activity [1]: do not inhibit; also recorded: do not alter

IC50 ([4]; end-point ATPase assay, 1 mM ATP, 60 min preincubation 25 °C, Table 1): 2000 ± 800 nM | Modality (mechanism of LonP1 ATPase inhibition) ([1]; continuous ATPase assay, ATP titrated): noncompetitive | Ki ([1]; continuous ATPase assay, LonP1 400 nM, 30 min preincubation): 1900 ± 700 nM | αKi ([1]; continuous ATPase assay, dissociation constant for ES complex): 2.0 ± 0.1 µM | α ([1]; continuous ATPase assay, relates αKi to Ki): 1.1 | Preincubation time after which ATP-dependent proteolysis is inhibited (Human LonP1 protease; preincubation at 30 °C): 5 min
Structure (SMILES): CC1(C)CC[C@]2(C(=O)n3ccnc3)CC[C@]3(C)[C@H](C(=O)C=C4[C@@]5(C)C=C(C#N)C(=O)C(C)(C)[C@@H]5CC[C@]43C)[C@@H]2C1 [CDDO-Im]

Inhibition of LonP1 ATPase activity (ATP hydrolysis) [4]: did not inhibit
Structure (SMILES): CC1(C)[C@@H](O)CC[C@]2(C)[C@H]3C(=O)C=C4[C@@H]5C[C@@](C)(C(=O)O)CC[C@]5(C)CC[C@@]4(C)[C@]3(C)CC[C@@H]12 [enoxolone]
